Test results published in patent US6858647B2, “Retinoid compounds suited for antibacterial applications” (Galderma Research & Development S.N.C., priority 2000, dated 2005).
≈ marks a conversion by molar mass, not a printed value. Like-named read-outs stand apart in the source and are kept apart here.

How the values were obtained:
[1] = tested on: Staphylococcus aureus CIP52.1; experiment: Minimum inhibitory concentration (MIC), NCCLS dilution antimicrobial susceptibility test; type: cell-based
From the text: The bacterium Staphylococcus aureus CIP52.1 may be used in order to determine for each test compound the minimum inhibitory concentration for the bacterium, or MIC, expressed in μM.
The technique employed to determine the minimum inhibitory concentration or MIC was that described in the publication entitled “National committee for clinical laboratory standards” Vol. 13, No. 25, December 1993; Methods for dilution antimicrobial susceptibility tests for bacteria that grow aerobically-third edition, approved standard”. This minimum inhibitory concentration gives an indication as to the bacteriostatic effect of the test compounds, i.e., the capacity of these compounds to stop the proliferation of the bacterium.
Each compound of the invention was tested at least three times. The average of the test results was calculated, along with the standard deviation. The reference compound used was gentamycin.
The technique employed to determine the MIC values was the same as that described in Example 1.
Each compound of the invention and each comparative example taken from the Pierre Fabre patent application No. FR-2,736,548 was tested at least three times. The mean of the test results was calculated, along with the standard deviation. The reference compound used was gentamycin.

RAR receptor = experiment: Biological activity of RAR receptor antagonist / agonist type; settings: stated in words, no test described
[2] = Staphylococcus aureus, CIP52, Table II, Example 1, mean of at least three tests, bacteriostatic effect, read-out: MIC RESULTS MEAN
[3] = Staphylococcus aureus, CIP52, read-out: MIC RESULTS MEAN
[4] = Table II, Example 1, mean of at least three tests, bacteriostatic effect, read-out: MIC RESULTS MEAN

In the case of `O=C(O)c1ccc2oc(-c3ccc(O)c(C45CC6CC(CC(C6)C4)C5)c3)cc2c1` [Compound 29, 2-(3-Adamantan-1-yl-4-hydroxyphenyl)benzofuran-5-carboxylic acid], the MIC [1, 2] is reported as 3.33 µM (≈ 1.29 µg/mL).
`O=C(O)c1ccc2cc(-c3cc(Br)c(O)c(C45CC6CC(CC(C6)C4)C5)c3)ccc2c1` [Compound 11, 6-(3-Adamantan-1-yl-5-bromo-4-hydroxyphenyl)-naphthalene-2-carboxylic acid] was tested, and the MIC [1, 2] was 2.08 µM (≈ 0.993 µg/mL) and the “biological activity at RAR receptor (antagonist or agonist type)” value (“biological activity at RAR receptor” for short) (RAR receptor) was “RAR receptor agonist type”.
Work on `Cc1cc(O)c(C23CC4CC(CC(C4)C2)C3)cc1-c1ccc2cc(C(=O)O)ccc2c1` [Compound 4, 6-[2-Methyl-4-hydroxy-5-(1-adamantyl)phenyl]-2-naphthoic acid] yielded an MIC [1, 2] of 1.25 µM (≈ 0.516 µg/mL).
Molecule `Cc1cc2c(cc1[Se]C#Cc1ccc(C(=O)O)c(O)c1)C(C)(C)CCC2(C)C` [Compound 22, 2-Hydroxy-4-(3,5,5,8,8-pentamethyl-5,6,7,8-tetrahydronaphthalen-2-ylselanylethynyl)benzoic acid] has an MIC [1, 3] of 2.5 µM (≈ 1.1 µg/mL).
For `CC1(C)CCC(C)(C)c2cc(-c3cc(-c4ccc(C(=O)O)cc4)ccc3-c3ccc(O)cc3)ccc21` [Compound 9, 4-Hydroxy-2′(5,5,8,8-tetramethyl-5,6,7,8-tetrahydronaphthalen-2-yl) [1,1′,4′,1″]terphenyl-4″-carboxylic acid], the MIC [1, 4] was 1.66 µM (≈ 0.791 µg/mL) and the “biological activity at RAR receptor” value (RAR receptor) was “RAR receptor agonist type”.
With `COc1cc(C)c(-c2cccc(C=CC(=O)O)c2)cc1C12CC3CC(CC(C3)C1)C2` [Compound 45, 3-(5′-Adamantan-1-yl-4′-methoxy-2′-methylbiphenyl-3-yl)acrylic acid] the MIC [1, 2] was 5 µM (≈ 2.01 µg/mL).
`COCOc1cc2c(cc1-c1cc(-c3ccc(C(=O)O)cc3)ccc1-c1ccccc1)C(C)(C)CCC2(C)C` [Compound 43, 2′-(3-Methoxymethoxy-5,5,8,8-tetramethyl-5,6,7,8-tetrahydronaphthalen-2-yl) [1,1′,4′,1″]terphenyl-4″-carboxylic acid] was tested, and the MIC [1, 4] was 5.00 µM (≈ 2.6 µg/mL).
`CC1(C)CCC(C)(C)c2cc3cc(-c4ccc(C(=O)O)c(O)c4)ccc3cc21` [Compound 28, 2-Hydroxy-4-(5,5,8,8-tetramethyl-5,6,7,8-tetrahydroanthracen-2-yl)benzoic acid] showed an MIC [1, 2] of 3.33 µM (≈ 1.25 µg/mL).
For `CC1(C)CCC(C)(C)c2cc([Se]C#Cc3ccc(C(=O)O)c(O)c3)ccc21` [Compound 42, 2-Hydroxy-4-(5,5,8,8-tetramethyl-5,6,7,8-tetrahydronaphthalen-2-ylselanylethynyl)benzoic acid], the MIC [1, 3] was 5 µM (≈ 2.14 µg/mL).
With `COc1cccc(C=CC#Cc2ccc(C(=O)O)cc2)c1-c1ccc(C)cc1` [Compound 3, 4-[4-(6-Methoxy-4′-methylbiphenyl-2-yl)but-3-en-1-ynyl]benzoic acid] the MIC [1, 2] was 1.04 µM (≈ 0.383 µg/mL) and the “biological activity at RAR receptor” value (RAR receptor) was “RAR receptor antagonist type”.
In the case of `CC1(C)CCC(C)(C)c2cc(Oc3ccc4cc(C(N)=O)ccc4c3)ccc21` [Compound 40, 6-(5,5,8,8-Tetramethyl-5,6,7,8-tetrahydronaphthalen-2-yloxy)naphthalene-2-carboxylic acid amide], the MIC [1, 2] is reported as 5 µM (≈ 1.87 µg/mL).
`Cc1ccc(-c2ccccc2C=CC#Cc2ccc(C(=O)O)cc2)cc1` [Compound 37, 4-[4-(4′-Methylbiphenyl-2-yl)but-3-en-1-ynyl]benzoic acid] was tested, and the MIC [1, 2] was 4.16 µM (≈ 1.41 µg/mL) and the “biological activity at RAR receptor” value (RAR receptor) was “RAR receptor antagonist type”.
For `CC1(C)CCC(C)(C)c2cc(-c3cc(-c4ccc(C(=O)O)cc4O)ccc3-c3ccccc3)ccc21` [Compound 10, 2″-Hydroxy-2′-(5,5,8,8-tetramethyl-5,6,7,8-tetrahydronaphthalen-2-yl) [1,1′,4′,1″]terphenyl-4″-carboxylic acid], the MIC [1, 4] was 1.66 µM (≈ 0.791 µg/mL) and the “biological activity at RAR receptor” value (RAR receptor) was “RAR receptor agonist type”.
With `CCCCCCOc1ccc(C(=O)Nc2ccc(C(=O)O)cc2)cc1C12CC3CC(CC(C3)C1)C2` [Compound 26, 4-(3-Adamantan-1-yl-4-hexyloxybenzoylamino)benzoic acid] the MIC [1, 2] was 3.33 µM (≈ 1.58 µg/mL).
For `Cc1ccc(-c2ccccc2C=CC#Cc2ccc(C(=O)O)c(O)c2)cc1` [Compound 6, 2-Hydroxy-4-[4-(4′-methylbiphenyl-2-yl)but-3-en-1-ynyl]benzoic acid], the MIC [1, 2] was 1.25 µM (≈ 0.443 µg/mL).
`CCCCCCCC/C=C(\C(=O)Nc1ccc(C(=O)O)cc1)c1ccc2c(c1)C(C)(C)CCC2(C)C` [Compound 36, 4-[(Z)-2-(5,6,7,8-tetrahydro-5,5,8,8-tetramethyl-2-naphthyl)-2-undecenamido]benzoic acid] showed an MIC [1, 2] of 4.16 µM (≈ 2.04 µg/mL).
`CCCCCCCON=C(C(=O)Nc1ccc(C(=O)O)cc1)c1ccc2c(c1)C(C)(C)CCC2(C)C` [Compound 39, 4-[2-Heptyloxyimino-2-(5,5,8,8-tetramethyl-5,6,7,8-tetrahydronaphthalen-2-yl)acetylamino]-benzoic acid] was tested, and the MIC [1, 2] was 5 µM (≈ 2.46 µg/mL).
`OCc1ccc2cc(-c3ccc(O)c(C45CC6CC(CC(C6)C4)C5)c3)ccc2c1` [Compound 27, 6-[3-(1-Adamantyl)-4-hydroxyphenyl]-2-napthylmethanol] was tested, and the MIC [1, 4] was 3.33 µM (≈ 1.28 µg/mL).
Work on `CC(CO)COc1ccc(C#Cc2ccc(C(=O)O)cc2)cc1C12CC3CC(CC(C3)C1)C2` (stereo not shown) [Compound 19, 4-[[3-(1-Adamantyl)-4-[(2-methyl-3-hydroxypropyloxy)phenyl]ethynyl]]benzoic acid] yielded an MIC [1, 4] of 2.50 µM (≈ 1.11 µg/mL).
With `COCCOCOc1cc2ccc(-c3ccc(C(=O)O)c(O)c3)cc2cc1C12CC3CC(CC(C3)C1)C2` [Compound 30, 4-[6-Methoxyethoxymethoxy-7-(1-adamantyl)-2-naphthyl] salicylic acid] the MIC [1, 2] was 3.33 µM (≈ 1.67 µg/mL) and the “biological activity at RAR receptor” value (RAR receptor) was “RAR receptor antagonist type”.
In the case of `CCCCCCCCCON=C(C(=O)Nc1ccc(C(=O)O)cc1)c1ccc2c(c1)C(C)(C)CCC2(C)C` [Compound 17, 4-[2-Nonyloxyimino-2-(5,5,8,8-tetramethyl-5,6,7,8-tetrahydronaphthalen-2-yl)acetylamino]benzoic acid], the MIC [1, 2] is reported as 2.5 µM (≈ 1.3 µg/mL).
Molecule `Cc1cc2c(cc1[Se]C#Cc1ccc(C(=O)O)cc1)C(C)(C)CCC2(C)C` [Compound 33, 4-(3,5,5,8,8-Pentamethyl-5,6,7,8-tetrahydronaphthalen-2-ylselanylethynyl)benzoic acid] has an MIC [1, 3] of 3.33 µM (≈ 1.42 µg/mL).
`CC1(C)CCC(C)(C)c2cc(-c3cc(-c4ccc(C(=O)O)cc4)ccc3-c3cccc(O)c3)ccc21` [Compound 44, 3-Hydroxy-2′-(5,5,8,8-tetramethyl-5,6,7,8-tetrahydronaphthalen-2-yl) [1,1′,4′,1″]terphenyl-4″-carboxylic acid] gave an MIC [1, 4] of 5.00 µM (≈ 2.38 µg/mL).
In the case of `CC1(C)CCC(C)(C)c2cc(-c3cc(-c4ccc(C(=O)O)cc4)ccc3-c3ccccc3)c(O)cc21` [Compound 14, 2′-(3-Hydroxy-5,5,8,8-tetramethyl-5,6,7,8-tetrahydronaphthalen-2-yl) [1,1′,4′,1″]terphenyl-4″-carboxylic acid], the MIC [1, 4] is reported as 2.08 µM (≈ 0.991 µg/mL) and the “biological activity at RAR receptor” value (RAR receptor) is reported as “RAR receptor agonist type”.
In the case of `COc1ccc(-c2ccc3cc(C(=O)NCCN(C)C)ccc3c2)cc1C12CC3CC(CC(C3)C1)C2` [Compound 41, (2-Dimethylaminoethyl)amide of 6-(3-adamantan-1-yl-4-methoxyphenyl)naphthalene-2-carboxylic acid], the MIC [1, 4] is reported as 5.00 µM (≈ 2.41 µg/mL).
`CC1(C)CCC(C)(C)c2cc3cc(-c4ccc(CO)c(O)c4)ccc3cc21` [Compound 20, 2-Hydroxymethyl-5-(5,5,8,8-tetramethyl-5,6,7,8-tetrahydroanthracen-2-yl)phenol] showed an MIC [1, 2] of 2.5 µM (≈ 0.901 µg/mL).
`CCCOc1ccc(-c2ccc3c(c2)C(C)(C)CCC3(C)C)cc1-c1ccc(C(=O)O)cc1` [Compound 38, 2′-Propoxy-5′-(5,5,8,8-tetramethyl-5,6,7,8-tetrahydronaphthalen-2-yl)bipheny-1-4-carboxylic acid] showed an MIC [1, 4] of 4.16 µM (≈ 1.84 µg/mL).
With `CCCCCCCCCC(C)(C)c1cc(C(=O)Nc2ccc(C(=O)O)cc2)ccc1OC` [Compound 25, 4-[3-(1,1-Dimethyldecyl)-4-methoxybenzoylamino]-benzoic acid] the MIC [1, 2] was 3.33 µM (≈ 1.46 µg/mL).
With `CCCCOC(c1ccc2c(c1)C(C)(C)CCC2(C)C)c1ccc2cc(C(=O)O)ccc2c1` (stereo not shown) [Compound 24, 6-[Butoxy-(5,5,8,8-tetramethyl-5,6,7,8-tetrahydronaphthalen-2-yl)methyl]naphthalene-2-carboxylic acid] the MIC [1, 2] was 3.33 µM (≈ 1.48 µg/mL).
Molecule `Cc1ccc(-c2c(C)cccc2C=CC#Cc2ccc(C(=O)O)cc2)cc1` [Compound 12, 4-[4-(6,4′-Dimethylbiphenyl-2-yl)but-3-en-1-ynyl]benzoic acid] has an MIC [1, 2] of 2.08 µM (≈ 0.733 µg/mL).
Molecule `COCCOCOc1ccc(C#Cc2ccc(C(=O)O)c(O)c2)cc1C12CC3CC(CC(C3)C1)C2` [Compound 18, 4-[3-Adamantan-1-yl-4-(2-methoxyethoxymethoxy)-phenylethynyl]-2-hydroxybenzoic acid] has an MIC [1, 2] of 2.5 µM (≈ 1.19 µg/mL).
In the case of `Cc1ccc(-c2ccc(C)cc2C=CC#Cc2ccc(C(=O)O)cc2)cc1` [Compound 8, 4-[4-(4,4′-Dimethylbiphenyl-2-yl)but-3-en-1-ynyl]benzoic acid], the MIC [1, 2] is reported as 1.66 µM (≈ 0.585 µg/mL).
Work on `COc1cc2c(cc1-c1cc(-c3ccc(C(=O)O)cc3)ccc1-c1ccccc1)C(C)(C)CCC2(C)C` [Compound 23, 2′-(3-Methoxy-5,5,8,8-tetramethyl-5,6,7,8-tetrahydronaphthalen-2-yl) [1,1′,4′,1″]terphenyl-4″-carboxylic acid] yielded an MIC [1, 4] of 2.50 µM (≈ 1.23 µg/mL).
